{"source": "patent US20240172744A1", "about": "“H[…] SOLUTION FOR REPAIRING KIDNEY INJURY AND USE THEREOF” (WUHAN UNIVERSITY, priority 2022, published 2024)", "key": {"[1]": {"test_system": "kidney from a donation after circulatory death donor of a rat", "test": "H&E pathological examination of renal tissues after 2 h of kidney perfusion", "conditions": "Examples 1-4: 200, 400, 600, 800 μM in KPS-1 solution; warm ischemia 30, 45, 60, 90 min; after 2 h perfusion; FIGS. 3A-3D", "experimental": "After 2 h of kidney perfusion according to the methods of Examples 1-4, 1 cm^3 of renal tissues were taken out and fixed in neutral formaldehyde for storage, and then dehydrated, embedded in paraffin, sectioned and then stained by H&E, and finally photographed under a microscope to observe morphological changes and pathological analysis of tissues."}, "[2]": {"test_system": "kidney from a donation after circulatory death donor of a rat", "test": "hypothermic oxygenated perfusion of rat donation-after-circulatory-death kidney ex-vivo, perfusion parameters (intrarenal resistance)", "conditions": "Examples 1-4: 200, 400, 600, 800 μM in KPS-1 solution, warm ischemia 30, 45, 60, 90 min, 0-4 °C, 30 mmHg, 2 h perfusion, FIGS. 2A-2D", "experimental": "The method for performing hypothermic oxygenated perfusion on a kidney from a donation after circulatory death donor of a rat by using the perfusion fluid according to the examples of the present invention specifically includes the following steps: for a donor organ donated after a cardiac death, in the kidney acquisition process, performing in-situ organ lavage by using heparin sodium saline with a temperature of 4° C. to effectively remove thrombus in large blood vessels and to relieve the obstacle of the thrombus to the delivery of carbon monoxide released by carbon monoxide-releasing molecules to the kidney, combining ex-vivo hypothermic oxygenated perfusion with the carbon monoxide released by the carbon monoxide-releasing molecules to specifically achieve the vasodilation, the removal of microthrombus and the recovery of the patency of the microcirculation, and evaluating the function and quality of the kidney through perfusion parameters (perfusion flow and intrarenal resistance) and a macroscopic kidney state, wherein the perfusion parameters can reflect the kidney function to a certain degree; a kidney with a good function can be subjected to allogeneic kidney transplantation and a kidney with a poor function will be discarded. […]"}}}
{"substance": "carbon monoxide-releasing molecules-401", "values": [{"measurement": "pathological examination of renal tissues (glomeruli, renal tubules, renal interstitium; H&E)", "setting": "[1]", "result": "no obvious abnormality found"}, {"measurement": "intrarenal resistance during hypothermic oxygenated perfusion", "setting": "[2]; listed as carbon monoxide-releasing molecule", "result": "continuously decrease"}, {"measurement": "intrarenal resistance during hypothermic oxygenated perfusion", "setting": "[2]; listed as carbon monoxide-releasing molecules", "result": "significantly reduced and maintained to be stable"}]}
